Melting point and EC50 data for five molecules are collected here from US8889722B2, “Pharmaceutical composition containing optically active compound having thrombopoietin receptor agonist activity, and intermediate therefor” (Shionogi & Co., Ltd., priority 2007, dated 2014).

Structures are written as SMILES.

System in the first series: not given
Test: not given
Settings: not given
Regarding `CCCCCC[C@H](OC)c1cccc(-c2csc(NC(=O)c3cc(Cl)c(/C=C(\C)C(=O)O)c(Cl)c3)n2)c1OC` [Compound C-1B, (S)-(E)-3-(2,6-dichloro-4-{4-[2-methyloxy-3-(1-methyloxyheptyl)-phenyl]thiazol-2-ylcarbamoyl}phenyl)-2-methylacrylic acid], the melting point lay within 162 to 164 °C.

A further series deals with T1, human TPO receptor (Homo sapiens, UniProt P40238).
T1 construct: expressed in transfected cells; host or cells: BaF-B03 (mouse pro-B cell line), strain BaF/hTPOR
T1 sequence (P40238 26-635): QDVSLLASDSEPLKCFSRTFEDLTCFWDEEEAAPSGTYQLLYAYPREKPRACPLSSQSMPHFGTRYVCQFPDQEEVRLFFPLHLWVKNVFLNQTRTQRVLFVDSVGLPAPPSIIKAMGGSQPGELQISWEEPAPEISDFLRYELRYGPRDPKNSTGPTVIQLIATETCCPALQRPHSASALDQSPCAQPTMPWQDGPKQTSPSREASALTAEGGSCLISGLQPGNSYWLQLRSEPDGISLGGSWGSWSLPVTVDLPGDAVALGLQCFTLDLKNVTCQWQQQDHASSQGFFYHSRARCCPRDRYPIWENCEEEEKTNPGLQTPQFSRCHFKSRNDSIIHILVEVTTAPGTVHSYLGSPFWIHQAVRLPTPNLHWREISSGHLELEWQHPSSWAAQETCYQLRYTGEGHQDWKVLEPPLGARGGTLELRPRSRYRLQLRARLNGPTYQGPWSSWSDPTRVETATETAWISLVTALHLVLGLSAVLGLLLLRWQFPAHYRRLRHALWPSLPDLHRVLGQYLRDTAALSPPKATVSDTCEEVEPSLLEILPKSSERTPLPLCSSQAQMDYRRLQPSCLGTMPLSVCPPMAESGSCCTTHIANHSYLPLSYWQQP
As to the kind of experiment: TPO receptor responsiveness: proliferation of TPO-dependent BaF/hTPOR cells (WST-1). Type of series: cell-based. Particulars: 20 hours culture, WST-1 absorption at 450 nm, concentration exhibiting half-maximum responsiveness of human TPO, read-out: ED50 (the source's name). On the procedure:
TPO receptor responsiveness of the compound represented by the formula (I) was measured using TPO-dependent cell strain BaF/hTPOR made by introducing a human TPO receptor gene into a BaF-B03 cell according to the method described in Collins et al., J. Cell. Physiol., 137: 293-298 (1988). A nucleotide sequence of a gene encoding thrombopoietin receptor is described in Vigon et al., Proc. Natl. Acad. Sci, 89:5640-5644 (1992). […] A BAF/hTPOR cell proliferated in a RPMI medium with 10% WEHI-3 culture solution added thereto was washed with PBS once, suspended in a RPMI medium with no WHEHI-3 culture solution added thereto, and cells were seeded on a 96-well microplate at a 5×10^4/well, and the present compound or TPO was added thereto. After cultured at 37° C. for 20 hours under 5% CO2 atmosphere, a WST-1 reagent (manufactured by Takara Shuzo, Co., Ltd) being a cell proliferation determination reagent was added, and absorption at 450 nm was measured after 4 hours.
With `CCCCCC[C@@H](OC)c1cccc(-c2csc(NC(=O)c3cc(Cl)c(/C=C(\C)C(=O)O)c(Cl)c3)n2)c1OC` [Compound C-1A, (R)-(E)-3-(2,6-dichloro-4-{4-[2-methyloxy-3-(1-methyloxyheptyl)phenyl]thiazol-2-ylcarbamoyl}phenyl)-2-methylacrylic acid], the EC50 is 3.09 nM.

Take `CCCCCC[C@H](OC)c1cccc(-c2csc(NC(=O)c3cc(Cl)c(/C=C(\C)C(=O)O)c(Cl)c3)n2)c1OC` [Compound C-1B, (S)-(E)-3-(2,6-dichloro-4-{4-[2-methyloxy-3-(1-methyloxyheptyl)-phenyl]thiazol-2-ylcarbamoyl}phenyl)-2-methylacrylic acid]: the EC50 amounted to 2.08 nM.

For `CCCCCCO[C@H](C)c1cccc(-c2csc(NC(=O)c3cc(Cl)c(/C=C(\C)C(=O)O)c(Cl)c3)n2)c1OC` [Compound C-3A, (R)-(E)-3-(2,6-dichloro-4-{4-[3-(1-hexyloxyethyl)-2-methyloxyphenyl]thiazol-2-ylcarbamoyl}phenyl)-2-methylacrylic acid], the EC50 amounted to 1.4 nM. As to `CCCCCCO[C@@H](C)c1cccc(-c2csc(NC(=O)c3cc(Cl)c(/C=C(\C)C(=O)O)c(Cl)c3)n2)c1OC` [Compound C-3B, (S)-(−)-(E)-3-(2,6-dichloro-4-{4-[3-(1-hexyloxyethyl)-2-methyloxyphenyl]thiazol-2-ylcarbamoyl}phenyl)-2-methylacrylic acid], the EC50 was determined as 1.09 nM.

In the case of `CCCO[C@H](c1cccc(-c2csc(NC(=O)c3cc(Cl)c(/C=C(\C)C(=O)O)c(Cl)c3)n2)c1OC)C(C)(C)C` [Compound C-9B, (S)-(E)-3-(2,6-dichloro-4-{4-[3-(2,2-dimethyl-1-propyloxypropyl)-2-methyloxyphenyl]thiazol-2-ylcarbamoyl}phenyl)-2-methylacrylic acid], the EC50 is 0.09 nM.
